Experimental data as given in US20140249135A1, “PIM KINASE INHIBITORS AND METHODS OF THEIR USE” (NOVARTIS AG, priority 2007, published 2014).
Read-outs that look alike come from different tables or passages of the source.

How the values were obtained:
Format in all cases: biochemical
Pim1 kinase = Pim1 kinase (Homo sapiens, UniProt P11309); experiment: Pim1 ATP depletion assay;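 also: Luciferase-luciferin luminescence readout of residual ATP after PIM1 transfers phosphate to a peptide substrate, 40 µM ATP added, reaction run to roughly half ATP consumption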
Pim1 kinase, sequence (P11309 whole entry): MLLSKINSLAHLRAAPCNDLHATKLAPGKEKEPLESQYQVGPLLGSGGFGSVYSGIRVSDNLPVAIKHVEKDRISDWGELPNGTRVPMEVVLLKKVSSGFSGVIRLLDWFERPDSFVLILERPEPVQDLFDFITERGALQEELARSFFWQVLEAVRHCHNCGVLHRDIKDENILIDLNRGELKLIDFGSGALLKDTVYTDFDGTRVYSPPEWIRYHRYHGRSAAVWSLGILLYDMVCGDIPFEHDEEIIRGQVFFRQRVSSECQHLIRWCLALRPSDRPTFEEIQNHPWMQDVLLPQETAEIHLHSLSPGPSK

Pim2 kinase = Pim2 kinase (Homo sapiens, UniProt Q9P1W9); experiment: Pim2 ATP depletion assay;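 also: Luciferase-based luminescent readout of ATP remaining after PIM2 phosphorylates a BAD peptide, final 5 nM enzyme, 4 µM ATP, 10 µM peptide, 2.5% DMSO, run to roughly half ATP consumption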
Pim2 kinase, sequence (Q9P1W9 whole entry): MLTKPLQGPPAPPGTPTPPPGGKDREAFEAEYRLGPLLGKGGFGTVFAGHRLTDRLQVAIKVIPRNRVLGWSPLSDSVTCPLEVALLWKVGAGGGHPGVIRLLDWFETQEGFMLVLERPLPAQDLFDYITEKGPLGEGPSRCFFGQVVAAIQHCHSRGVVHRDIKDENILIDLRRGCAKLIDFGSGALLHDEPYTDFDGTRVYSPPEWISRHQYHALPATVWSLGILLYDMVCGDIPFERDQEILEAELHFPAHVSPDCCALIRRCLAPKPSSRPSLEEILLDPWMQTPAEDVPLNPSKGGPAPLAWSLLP

Pim3 kinase = Pim3 kinase (Homo sapiens, UniProt Q86V86); experiment: Pim3 ATP depletion assay
[1] = Pim1 ATP depletion assay, read-out: IC50 (μM) PIM1
[2] = Pim1 ATP depletion assay, read-out: PIM1 IC50

SMILES	IC50 (Pim1 kinase; [1]) [µM]	IC50 (Pim2 kinase; read-out: IC50 (μM) PIM2) [µM]	IC50 (Pim3 kinase; read-out: IC50 (μM) PIM3) [µM]	IC50 (Pim1 kinase; [2]) [µM]	IC50 (Pim2 kinase; read-out: PIM2 IC50) [µM]	IC50 (Pim3 kinase; read-out: PIM3 IC50) [µM]	IC50 (Pim1 kinase) [µM]
Nc1ccc(-c2ccc(F)nc2N)nc1C(=O)Nc1cnccc1N1CCC[C@H](N)C1 [Example 408, 5,2′-diamino-6′-fluoro-[2,3′]bi-pyridinyl-6-carboxylic acid ((S)-3-amino-3,4,5,6-tetrahydro-2H-[1,4′]bipyridinyl-3′-yl)-amide]	< 1	< 1	< 1	–	–	–	–
Nc1ccc(-c2c(F)cccc2F)nc1C(=O)Nc1cnccc1-c1cc(Cl)nc(C(F)(F)F)c1 [Example 621, 3-amino-N-[2′-chloro-6′-(trifluoromethyl)-4,4′-bipyridin-3-yl]-6-(2,6-difluorophenyl)pyridine-2-carboxamide]	–	–	–	< 1	< 1	< 1	–
Cc1ccc(F)c(-c2ccc(N)c(C(=O)Nc3cnccc3N3CCC[C@H](N)C3)n2)n1 [Example 709, 5-Amino-3′-fluoro-6′-methyl-[2,2′]bipyridinyl-6-carboxylic acid (3-amino-3,4,5,6-tetra-hydro-2H-[1,4′]bipyridinyl-3′-yl)-amide]	–	–	–	< 1	< 1	< 1	–
CCOc1ccc(F)c(-c2ccc(N)c(C(=O)Nc3cnccc3N3CCC[C@H](N)C3)n2)c1 [Example 469, 3-Amino-6-(5-ethoxy-2-fluoro-phenyl)-pyridine-2-carboxylic acid (3-amino-3,4,5,6-tetrahydro-2H-[1,4′]bipyridinyl-3′-yl)-amide]	< 1	< 1	< 1	–	–	–	–
Nc1ccc(-c2c(F)cccc2F)nc1C(=O)Nc1cnccc1N1CC(N)CC(C(F)(F)F)C1 (stereo not drawn) [Example 282, 3-Amino-6-(2,6-difluoro-phenyl)-pyridine-2-carboxylic acid (3-amino-5-trifluoromethyl-3,4,5,6-tetrahydro-2H-[1,4′]bi-pyridinyl-3′-yl)-amide]	< 1	< 1	< 1	–	–	–	–
Nc1nccc(-c2ccc(N)c(C(=O)Nc3cnccc3N3CCC[C@H](N)C3)n2)n1 [Example 728, 3-Amino-6-(2-amino-pyrimidin-4-yl)-pyridine-2-carboxylic acid (3-amino-3,4,5,6-tetrahydro-2H-[1,4′]bipyridinyl-3′-yl)-amide]	–	–	–	–	< 1	< 1	< 1
Nc1ccc(-c2c(F)cccc2F)nc1C(=O)Nc1cnccc1N1CCCCC1 [Example 588, 3-amino-6-(2,6-difluoro-phenyl)-pyridine-2-carboxylic acid (3,4,5,6-tetrahydro-2H-[1,4′]bipyridinyl-3′-yl)-amide]	–	–	–	< 1	< 1	< 1	–
CN1CCN(c2cc(-c3ccc(N)c(C(=O)Nc4cnccc4-c4cc(N)nc(C(F)(F)F)n4)n3)ccn2)CC1 [Example 573, 5-Amino-2′-(4-methyl-piperazin-1-yl)-[2,4′]bipyridinyl-6-carboxylic acid [4-(6-amino-2-trifluoromethyl-pyrimidin-4-yl)-pyridin-3-yl]-amide]	–	–	–	< 1	< 1	< 1	–
CC(=O)Nc1cccc(-c2nc(C(=O)Nc3cnccc3N3CCC[C@H](N)C3)c(N)cc2F)c1 [Example 500, 6-(3-Acetylamino-phenyl)-3-amino-5-fluoro-pyridine-2-carboxylic acid (3-amino-3,4,5,6-tetrahydro-2H-[1,4′]bipyridinyl-3′-yl)-amide]	< 1	< 1	< 1	–	–	–	–
Cc1nc(-c2ccc(N)c(C(=O)Nc3cnccc3N3CCC[C@H](N)C3)n2)ccc1F [Example 708, 5-Amino-5′-fluoro-6′-methyl-[2,2′]bipyridinyl-6-carboxylic acid (3-amino-3,4,5,6-tetra-hydro-2H-[1,4′]bipyridinyl-3′-yl)-amide]	–	–	–	< 1	< 1	< 1	–
Nc1ccc(-c2cncs2)nc1C(=O)Nc1cnccc1N1CCC[C@H](N)C1 [Example 688, 3-Amino-6-thiazol-5-yl-pyridine-2-carboxylic acid (3-amino-3,4,5,6-tetrahydro-2H-[1,4′]bipyridinyl-3′-yl)-amide]	–	–	–	< 1	< 1	< 1	–
COC1CCN(c2ccncc2NC(=O)c2nc(-c3cc(C(=O)NC(C)C)ccc3F)ccc2N)CC1N (stereo not drawn) [Example 299, 3-Amino-6-(2-fluoro-5-isopropylcarbamoyl-phenyl)-pyridine-2-carboxylic acid (3-amino-4-methoxy-3,4,5,6-tetra-hydro-2H-[1,4′]bipyridinyl-3′-yl)-amide]	< 1	< 1	< 1	–	–	–	–
CC(C)NC(=O)c1ccc(F)c(-c2ccc(F)c(C(=O)Nc3cnccc3N3CCC[C@H](N)C3)n2)c1 [Example 569, 3-Fluoro-6-(2-fluoro-5-isopropylcarbamoyl-phenyl)-pyridine-2-carboxylic acid (3-amino-3,4,5,6-tetrahydro-2H-[1,4′]bipyridinyl-3′-yl)-amide]	–	–	–	< 1	< 1	< 1	–
Cc1cc(-c2ccncc2NC(=O)c2nc(-c3ccccc3)ncc2N)cc(N)n1 [Example 269, 5-Amino-2-phenyl-pyrimidine-4-carboxylic acid (6′-amino-2′-methyl-[4,4′]bipyridinyl-3-yl)-amide]	< 1	< 1	< 1	–	–	–	–
Nc1cccc(-c2ccc(N)c(C(=O)Nc3cnccc3N3CCC[C@H](N)C3)n2)n1 [Example 711, 5,6′-Diamino-[2,2′]bipyridinyl-6-carboxylic acid (3-amino-3,4,5,6-tetrahydro-2H-[1,4′]bi-pyridinyl-3′-yl)-amide]	–	–	–	< 1	< 1	< 1	–
COc1ccc(F)c(-c2ccc(N)c(C(=O)Nc3cnccc3N3CCC[C@H](N)C3)n2)c1F [Example 493, 3-Amino-6-(2,6-difluoro-3-methoxy-phenyl)-pyridine-2-carboxylic acid (3-amino-3,4,5,6-tetrahydro-2H-[1,4′]bipyridinyl-3′-yl)-amide]	< 1	< 1	< 1	–	–	–	–
CCNC(=O)c1ccc(F)c(-c2ncc(N)c(C(=O)Nc3cnccc3N3CCC[C@H](N)C3)n2)c1 [Example 540, 5-Amino-2-(5-ethylcarbamoyl-2-fluoro-phenyl)-pyrimidine-4-carboxylic acid (3-amino-3,4,5,6-tetrahydro-2H-[1,4′]bipyridinyl-3′-yl)-amide]	–	–	–	< 1	< 1	< 1	–

Continued, values first:

IC50 (Pim1 kinase; [1]) [µM]	IC50 (Pim2 kinase; read-out: IC50 (μM) PIM2) [µM]	IC50 (Pim3 kinase; read-out: IC50 (μM) PIM3) [µM]	IC50 (Pim1 kinase; [2]) [µM]	IC50 (Pim2 kinase; read-out: PIM2 IC50) [µM]	IC50 (Pim3 kinase; read-out: PIM3 IC50) [µM]	IC50 (Pim1 kinase) [µM]	SMILES
< 1	< 1	< 1	–	–	–	–	CC(C)NC(=O)c1ccc(F)c(-c2ccc(N)c(C(=O)Nc3cnccc3N3C[C@@H](N)C[C@H](O)C3)n2)c1 [Example 296, 3-Amino-6-(2-fluoro-5-isopropylcarbamoyl-phenyl)-pyridine-2-carboxylic acid (3-amino-5-hydroxy-3,4,5,6-tetra-hydro-2H-[1,4′]bipyridinyl-3′-yl)-amide]
–	–	–	< 1	< 1	< 1	–	Cc1nc(N)cc(-c2ccncc2NC(=O)c2nc(-c3c(F)ccc(OC(C)C)c3F)ccc2N)n1 [Example 537, 3-Amino-6-(2,6-difluoro-3-isopropoxy-phenyl)-pyridine-2-carboxylic acid [4-(6-amino-2-methyl-pyrimidin-4-yl)-pyridin-3-yl]-amide]
–	–	–	< 1	< 1	< 1	–	Nc1ccc(-c2cc(C(=O)Nc3ccccc3)ccc2F)nc1C(=O)Nc1cnccc1N1CCCC(O)C1 (stereo not drawn) [Example 656, 3-Amino-6-(2-fluoro-5-phenyl-carbamoyl-phenyl)-pyridine-2-carboxylic acid (3-hydroxy-3,4,5,6-tetrahydro-2H-[1,4′]bi-pyridinyl-3′-yl)-amide]
–	–	–	< 1	1 to 10	< 1	–	COc1ncccc1-c1ccc(N)c(C(=O)Nc2cnccc2-c2ccccc2C)n1 [Example 584, 5-amino-2′-methoxy-[2,3′]bi-pyridinyl-6-carboxylic acid (4-o-tolyl-pyridin-3-yl)-amide]
–	–	–	< 1	< 1	< 1	–	CSc1ccc(-c2ccc(N)c(C(=O)Nc3cnccc3N3CCC[C@H](N)C3)n2)nc1 [Example 699, 5-Amino-5′-methylsulfanyl-[2,2′]bipyridinyl-6-carboxylic acid (3-amino-3,4,5,6-tetra-hydro-2H-[1,4′]bipyridinyl-3′-yl)-amide]
–	–	–	< 1	< 1	< 1	–	CCCOc1cncc(-c2ccc(N)c(C(=O)Nc3cnccc3N3CCC[C@H](N)C3)n2)n1 [Example 747, 3-Amino-6-(6-propoxy-pyrazin-2-yl)-pyridine-2-carboxylic acid (3-amino-3,4,5,6-tetrahydro-2H-[1,4′]bipyridinyl-3′-yl)-amide]
–	–	–	< 1	< 1	< 1	–	CC(C)Oc1cncc(-c2nc(C(=O)Nc3cnccc3N3CCC[C@H](N)C3)c(N)cc2F)n1 [Example 739, 3-Amino-5-fluoro-6-(6-isopropoxy-pyrazin-2-yl)-pyridine-2-carboxylic acid (3-amino-3,4,5,6-tetrahydro-2H-[1,4′]bipyridinyl-3′-yl)-amide]
< 1	< 1	< 1	–	–	–	–	Nc1ccc(-c2cccc(Br)c2)nc1C(=O)Nc1cnccc1N1CCC[C@H](N)C1 [Example 459, 3-Amino-6-(3-bromo-phenyl)-pyridine-2-carboxylic acid (3-amino-3,4,5,6-tetrahydro-2H-[1,4′]bipyridinyl-3′-yl)-amide]
–	–	–	< 1	< 1	< 1	–	Cc1cc(-c2ccncc2NC(=O)c2nc(-c3c(F)cccc3F)c(F)cc2N)cc(N)n1 [Example 619, 3-amino-N-(2′-amino-6′-methyl-4,4′-bipyridin-3-yl)-6-(2,6-difluorophenyl)-5-fluoropyridine-2-carboxamide]
